The test system of assay [1] is primary cortical neurons. Nature of the assay: HCA-induced neurodegeneration assay (oxidative stress, glutathione depletion). To be noted: at 0.5 μM; protection declined at higher concentrations due to neurotoxicity. Type of assay: cell-based. The procedure:
FIG. 1 contains bar graphs of % cell survival vs. concentration for HCA evaluation of II-ING-66 using the glutathione depletion neurotoxicity model of oxidative stress. Immature primary cortical neurons were treated with the test compound alone or in the presence of HCA. Cell viability was assessed at 24 h using the MTT assay. Bar plot represents percentage control mean±SEM of viable cells (n=3). *p<0.05 and **p<0.01 compared to control (DMSO) (n=3/group). HCA oxidative stress assay.
Compound II-ING-66 was examined in a model of oxidative stress induced by homocysteic acid (HCA), where neurons were treated with the test compound alone or in the presence of HCA.
It has been shown that HDAC6 inhibition protects against neuronal degeneration and stimulates neurite outgrowth in dorsal root ganglion neurons, therefore indicating methods of treating CNS diseases. Accordingly, present compounds were examined in a model of oxidative stress induced by homocysteic acid (HCA). This model leads to depletion of glutathione, the major intracellular antioxidant. HDAC6 inhibition rescues neuronal death in this model, possibly by causing hyperacetylation of peroxiredoxins. […] (A. P. Kozikowski et al., J. Med. Chem. 2007, 50, 3054-61.) […]

Assay [2] relates to α-tubulin acetylation. The conditions noted are these: published results; cited from earlier work.
Assay [3] has as its system prostate cancer (LNCaP) cells. To be noted: via peroxiredoxin acetylation, published results; cited from earlier work.

Consider `CC(/C=C/C(=O)NO)=C\[C@@H](C)C(=O)c1ccc(N(C)C)cc1` [TSA, Trichostatin A], for which, in assay [1], the “Neuroprotection in HCA-induced neurodegeneration” value was “moderately neuroprotective”.

Consider `O=C(CCCCCCC(=O)Nc1ccc([C@H]2O[C@@H](CSc3nc(-c4ccccc4)c(-c4ccccc4)o3)C[C@@H](c3ccc(CO)cc3)O2)cc1)NO` [Tubacin], for which the “Concentration inducing α-tubulin acetylation” value in assay [2] is 5 µM. Moreover, the “Concentration protecting from hydrogen peroxide-induced death” value in assay [3] was 8 µM.

The values are drawn from patent US10934255B2, “Nrf and HIF activators/HDAC inhibitors and therapeutic methods using the same” (THE BOARD OF TRUSTEES OF THE UNIVERSITY OF ILLINOIS, priority 2017, dated 2021).
